Laboratory results reported in patent EP4623906A1, “OPHTHALMIC FORMULATION COMPRISING PYRIDINE PHENYL COMPOUND, PREPARATION METHOD THEREFOR, AND USE THEREOF” (Zhuhai United Laboratories Co., Ltd., priority 2022, dated 2024).

Assays:
Format in all cases: physicochemical
[1] = Preliminary stability of eye drops with antimicrobial preservatives, in the dark at 25°C and 40°C for 5 days (Examples 52, 55, 56); details: Compound of Formula (IX), 0 h
Protocol: According to the prescription ratio in Table 11, the active compound of formula (IX) was weighed, and dispersed in isopropanol with stirring until the solution was clear. HP-β-CD was slowly added under stirring, until the solution was clear. Purified water in the prescribed ratio was slowly added to the isopropanol solution under stirring, and stirred for 1 hour to obtain a clear solution. The above solution was freeze-dried in a vacuum freeze dryer to obtain a loose white freeze-dried powder. Freeze-dried powder of the inclusion compound was dissolved in a re-dissolving medium, and successively filtered through 0.45 µm and 0.22 µm mixed filter membrane to obtain active compound eye drops, and filled in a sample packaging of 2 mL per bottle, to obtain eye drops.
For multi-dose packaged eye drops, the addition of antimicrobial preservatives is needed to avoid microbial contamination during use. The effects of two antimicrobial preservatives, benzalkonium chloride and chlorhexidine acetate, on prescription stability were investigated through Examples 52, 55, and 56. The preliminary stability of eye drops from Example 52, Example 55, and Example 56 was investigated by placing them in the dark at 25°C and 40°C for 5 days.

[2] = Solubilization trials of compound of formula (IX) with different solubilizing agents, grinding and heating (Examples 1-11)
Protocol: Examples 1-11 were prepared according to the specific processes in Table 1. […]

[3] = Preliminary compatibility of packaging materials, in the dark at 25°C (Examples 52-54); design: unit not given here; details: Compound of Formula (IX) itself
Protocol: Examples 53 and 54 were packaged in low-density polyethylene (PE) pharmaceutical eye drops bottles, brown polyester (PET) pharmaceutical eye drops bottles and ampoules, respectively. They were placed in the dark at 25°C to investigate the preliminary compatibility of the packaging materials.

- Peak at retention time 19.6 min, relative retention time 1.00 [1]: 93.14
- Peak at retention time 20.2 min, relative retention time 1.03 [1]: 0.16
- Peak at retention time 21.1 min, relative retention time 1.08 [1]: 0.39
- Peak at retention time 21.5 min, relative retention time 1.10 [1]: 0.41
- Peak at retention time 23.8 min, relative retention time 1.21 [1]: 0.11
- Peak at retention time 24.0 min, relative retention time 1.22 [1]: 2.41
- Peak at retention time 24.5 min, relative retention time 1.25 [1]: 0.50
- Peak at retention time 24.7 min, relative retention time 1.26 [1]: 0.25
- Peak at retention time 24.8 min, relative retention time 1.27 [1]: 0.12
- Peak at retention time 25.6 min, relative retention time 1.31 [1]: 0.09
- Peak at retention time 26.0 min, relative retention time 1.33 [1]: 0.15
- Peak at retention time 26.2 min, relative retention time 1.34 [1]: 2.15
- Peak at retention time 28.3 min, relative retention time 1.44 [1]: 0.13
- Solubility in water [2]: insoluble or almost insoluble
- Impurity RRT 0.44 [3]: 0.06
- Impurity RRT 1.17 [3]: 0.05
- Impurity RRT 1.29 [3]: 0.20
- Impurity RRT 1.34 [3]: 0.10
- Impurity RRT 1.55 [3]: 0.07
- Impurity RRT 1.59 [3]: 0.02
- Impurity RRT 1.66 [3]: 0.04
- Impurity RRT 1.75 [3]: 0.04
- Impurity RRT 1.81 [3]: 0.03
- Impurity RRT 1.84 [3]: 0.25
- Impurity RRT 1.89 [3]: 0.04
- Impurity RRT 1.97 [3]: 0.03
- Impurity RRT 2.10 [3]: 0.09
- Impurity RRT 2.19 [3]: 0.21
- Impurity RRT 2.23 [3]: 0.02
- Impurity RRT 2.27 [3]: 0.03
- Total impurity [3]: 1.03
SMILES: CC(C)(O)c1ccc(-c2cnc(C(C)(C)O)c(N)c2)cc1N [Compound of Formula (IX)]
